Earlier results as cited in paper PMC3461233 (Angewandte Chemie (International ed. in English), 2012).

Substance: Arg9
- spontaneous translocation across synthetic membranes: does not translocate spontaneously
